{"source": "patent US11110080B2", "about": "“Small molecule inhibitors of bacterial efflux pumps and methods of using same” (The Regents of the University of Colorado, a body Corporate, priority 2017, dated 2021)", "key": {"[1]": {"tested_on": "S.Tm in RAW 264.7 macrophages", "test": "SAFIRE in the presence of a transcriptional (DRB) or translational (cycloheximide) inhibitor", "assay_type": "cell-based, Salmonella enterica serovar Typhimurium", "conditions": "100 μM DRB or 1 μM cycloheximide, no EPM", "experimental": "FIG. 13A depicts that RAWs were infected and treated with 25 μM of the indicated compounds using SAFIRE. From 2-18 hours post-infection, cells were treated with DMSO, 100 μM DRB, or 1 μM cycloheximide (CHX). Data for each inhibitor (DRB, CHX) treatment are normalized to cells not treated with EPMs, as differences in basal infection were observed (FIG. 10). Data are mean+SEM of three independent biological replicates, each performed in triplicate. FIG. 13B depicts that RAWs were seeded in 6-well dishes and treated in parallel with FIG. 13A. RNA was extracted at the indicated timepoints, reverse transcribed, and expression of the indicated genes was determined using qPCR. Data shown are mean+SEM of four separate wells from one replicate, and were performed in parallel with one replicate of (A). ****p<0.0001 compared to uninfected by two-way ANOVA with Dunnett's post-test.\nTherefore, the question was whether the EPMs require host transcription or translation of AMPs or other factors, for antimicrobial activity. SAFIRE was performed in the presence of a transcriptional (DRB) or translational (cycloheximide) inhibitor (FIG. 13). Since exposure to inhibitors prior to infection greatly diminished macrophage viability, DRB or cycloheximide was added 2 hours post-infection, concurrently with EPMs. […]"}, "bacterial outer membrane": {"tested_on": "bacterial outer membrane", "test": "Nitrocefin access to the periplasm (outer membrane permeability)", "assay_type": "cell-based, Salmonella", "experimental": "(§1) FIGS. 20A and 20B depict Bacteria treated with DMSO or EPMs [100 μM] but not CCCP [1 mM] acquire TMRM staining within 30 minutes. FIG. 20A depicts representative data from one of three independent experiments. FIG. 20B depicts median fluorescence intensity from three experiments normalized to unstained control (0). FIG. 20C depicts disk diffusion assays; the radius of the zone of growth inhibition after 16 hours of exposure to compound across a dose range. Black lines, semilog fit for the combined antibiotic data; gray lines, semilog fit for CCCP and PAβN; dotted line, limit of detection (disk radius). Average of two measurements from each image captured from one experiment representative of two independent experiments. FIGS. 20D and 20E depict nitrocefin access to the periplasm as monitored by nitrocefin [100 μM] hydrolysis in the presence of the indicated concentrations of compounds. FIG. 20D depicts absorbance 486 nm of bla+ Salmonella normalized to bla− Salmonella. Data is representative of 3-4 independent biological replicates. FIG. 20E depicts slope of the linear region of the A486 plot from at least three experiments. Data is normalized to A486/minute. *p<0.05, ***p<0.001, ****p<0.0001 by one-way ANOVA with Dunnett's post-test. […]"}, "S.Tm": {"tested_on": "S.Tm", "test": "Swimming assay in soft agar (proton motive force)", "assay_type": "cell-based, Salmonella enterica serovar Typhimurium", "conditions": "50× the MIC (6.25 mM)", "experimental": "One way to inhibit efflux pumps is to disrupt the proton motive force, which is required for transport by some EPs. […] Bacteria were injected into the center of 0.25% agar plates, and 10 μl of compound was added to paper disks on the periphery. […] Also ampicillin and rifampicin were tested. We plotted the halo radius versus the concentration as the fold above the MIC (FIG. 9G). […] Next, it was determined whether PAβN inhibited swimming; PAβN is thought to disrupt membranes over long incubations. […] Finally, the EPMs at […] were tested (FIGS. 9D-F).\nSaturated overnight cultures were diluted to an OD600 of 0.01 in LB and 1 μL was injected into the center of low agar (0.25%) LB plates. Ten microliters of the indicated compounds were added to sterilized Whatman paper disks (diameter 0.7 cm) placed equidistant from the plate center."}, "[2]": {"tested_on": "bacterial inner membrane potential", "test": "TMRM incorporation (inner membrane potential)", "assay_type": "cell-based, Salmonella", "conditions": "30 minutes, CCCP 1 mM", "experimental": "as §1, with “Salmonella.” for “Salmonella. Data is representative of 3-4 independent biological replicates. FIG. 20E depicts slope of the linear region of the A486 plot from at least three experiments. Data is normalized to A486/minute. *p<0.05, ***p<0.001, ****p<0.0001 by one-way ANOVA with Dunnett's post-test.”\nTo establish whether the three EPMs alter bacterial inner membrane potential, their effect on the incorporation of the voltage-sensitive dye Tetramethylrhodamine methyl ester (TMRM) was observed. […] To establish whether a longer incubation with the EPMs may compromise membrane integrity, the effect of the EPMs on bacterial swimming, an energy intensive activity was monitored over 15 hours (FIGS. 20C, 10). […]"}, "[3]": {"test": "Freeze-thaw sensitivity of DMSO solution, read out by SAFIRE", "assay_type": "physicochemical", "conditions": "25 μM; freeze thawed 20 times vs freshly dissolved", "experimental": "SAFIRE was used to quantify infection of macrophages treated with 25 μM nalidixic acid that was cherry-picked from the plates used to perform the screen (n=2), freshly dissolved in DMSO (n=3), or freshly dissolved and freeze thawed 20 times (n=3). Data are mean+SEM."}, "[4]": {"tested_on": "Salmonella enterica serovar Typhimurium (S.Tm) within RAW 264.7 murine macrophages", "test": "SAFIRE: fluorescence microscopy assay of S.Tm load within macrophages", "assay_type": "cell-based", "experimental": "A high-content, high-throughput fluorescence microscopy-based screening platform to assay S.Tm load within macrophages was developed (FIG. 1A). RAW 264.7 murine macrophages, a widely used cell line for bacterial infection studies, were infected with bacteria in a standard gentamicin protection assay. The Salmonella expressing GFP driven by the sifB promoter was incubated with the compound beginning at 2 hours post-infection. At 18 hours post-infection, cells were stained with MitoTracker Red CMXRos as a marker of macrophage vitality and processed for fluorescence microscopy. Stained with DAPI. A MATLAB®-based algorithm was developed to quantify infection (FIG. 1B) and compared to statistics to describe infection. Percentage of infected cells was determined by counting the proportion of macrophages within an image with at least 2 GFP+ pixels. Infection area was calculated by normalizing the number of GFP+ pixels within a cell to the cell's total area, then averaging across all cells in an image. To evaluate the approach, 2 μg/ml rifampicin in 96-well and 384-well plates was tested in three independent replicates. The Z′-factor was employed as a measure of assay reproducibility. Numbers close to 1 indicated high reproducibility. For percentage of infected macrophages, the Z′-factor was 0.59 and 0.48 in 96-well and 384-well plates, respectively, compared with 0.66 and 0.38 for infection area. The optimal Z′-factor threshold for high-throughput screening was 0.5; however, values above 0 were considered marginal but feasible. Therefore, the percentage of infected macrophages statistic was used.\nThe 14,400 compound library Maybridge HitFinder™ v11 was screened, which has been extensively screened against mammalian and microbial targets. The library was screened in duplicate at 25 μM in 384-well plates (FIG. 1C). Data were normalized using the B-score method to remove positional variation. The significance of B-scores was calculated using a modified t-test assuming an inverse gamma distribution of variances. Using a dual threshold of B-score greater than 1 and standard deviation from the mean and p-value less than 0.05, 908 compounds (6.3%) were identified that decreased or increased the percentage of infected macrophages. […] Compounds that altered infection by at least 25% in 96-well plates were considered validated hits.\nFor high-throughput screening and validation, 7×10^3 macrophages in 40 μL or 3×10^4 macrophages in 100 μL were seeded in 384- or 96-well black-walled, glass-bottomed plates (Brooks Automation). […] Forty-five minutes after bacterial addition, 20 or 50 μL gentamicin was added to a final concentration of 40 μg/mL. […] At 2 hours post-infection, 200 or 500 nL compound was added using a pin tool (CyBio) to yield a final concentration of 25 μM. Each assay plate included rifampicin and DMSO controls. In some experiments, media was removed and replaced with fresh medium containing 40 μg/mL gentamicin and the indicated concentrations of drugs. At 17.5 hours post-infection, PBS containing MitoTracker Red CMXRos (Life Technologies) was added to yield a final concentration of 300 nM (384-well) or 100 nM (96-well). Thirty minutes later, 16% paraformaldehyde was added to a final concentration of 1-2% and incubated at room temperature for 15 minutes. Wells were washed twice with PBS and stained for 20 minutes with 1 μM DAPI; wells were washed twice and stored in 90% glycerol in PBS until imaging.\nHigh magnification images were acquired on an Olympus IX81 inverted widefield microscope. For screening imaging, three-color images were acquired at 10× or 20× on a Cellomics ArrayScan VTI (Thermo) and exported to DIB files. At least two images were taken per well for all experiments. […]"}}}
{"compound": "OC[C@H]1O[C@@H](n2cnc3cc(Cl)c(Cl)cc32)[C@H](O)[C@@H]1O", "note": "[DRB]", "values": [{"measurement": "basal infection of macrophages", "setting": "[1]", "result": "decreased basal infection"}]}
{"compound": "polymyxin B", "values": [{"measurement": "nitrocefin access to the periplasm", "setting": "bacterial outer membrane; 1 μg/mL", "result": "do not by themselves allow nitrocefin access to the periplasm"}, {"measurement": "nitrocefin access to the periplasm", "setting": "bacterial outer membrane; 5 μg/mL", "result": "high enough to allow nitrocefin access to the periplasm"}]}
{"compound": "N#CC(C#N)=NNc1cccc(Cl)c1", "note": "[CCCP, reference compound]", "values": [{"measurement": "halo in swimming assay", "setting": "S.Tm", "result": "creating a halo"}, {"measurement": "decrease of TMRM levels versus DMSO", "setting": "[2]", "result": "approximately 50 fold"}]}
{"compound": "C[C@@H]1C[C@@H]([C@H](O)CC2CC(=O)NC(=O)C2)C(=O)[C@@H](C)C1", "note": "[cyclohexamide, cycloheximide]", "values": [{"measurement": "basal infection of macrophages", "setting": "[1]", "result": "decreased basal infection"}]}
{"compound": "CCn1cc(C(=O)O)c(=O)c2ccc(C)nc21", "note": "[Nalidixic acid]", "values": [{"measurement": "sensitivity to freeze-thawing when dissolved in DMSO", "setting": "[3]", "result": "sensitive to freeze-thawing"}, {"measurement": "B-score, first replicate of the screen", "setting": "[4]; 25 μM", "result": "−4.41"}, {"measurement": "B-score, second replicate of the screen", "setting": "[4]; 25 μM", "result": 0.70}, {"measurement": "hit status in SAFIRE screen", "setting": "[4]; Maybridge HitFinder v11 library screened at 25 μM", "result": "Nalidixic acid^2"}]}
